Test results taken from publication PMC8151276, “An Integrated Approach toward NanoBRET Tracers for Analysis of GPCR Ligand Engagement” (Molecules, 2021).

How the values were obtained:
[1] = molecular target: T1, GNRHR (Homo sapiens, UniProt P30968); test: NanoBRET screen HiBiT-GNRHR in HEK293; assay type: binding; conditions: GNRHR
T1 construct: purchased Promega (in-house HiBiT-GPCR construct library, NanoBRET)
T1 sequence (P30968 1-328): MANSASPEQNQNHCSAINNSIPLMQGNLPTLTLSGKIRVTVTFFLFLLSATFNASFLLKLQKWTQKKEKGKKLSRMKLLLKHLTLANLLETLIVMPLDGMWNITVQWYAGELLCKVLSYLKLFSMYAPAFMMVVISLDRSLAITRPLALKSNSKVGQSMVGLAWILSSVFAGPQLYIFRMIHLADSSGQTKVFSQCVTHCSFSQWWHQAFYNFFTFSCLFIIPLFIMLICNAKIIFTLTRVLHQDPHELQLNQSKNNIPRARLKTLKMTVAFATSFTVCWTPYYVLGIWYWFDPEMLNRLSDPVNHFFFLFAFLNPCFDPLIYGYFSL
Protocol: (§1) Each tracer candidate was screened across the entire library of HiBiT-GPCR constructs using NanoBRET as the detection modality. As depicted in Figure 4A, the specificity of interactions was evaluated through decrease in BRET due to competitive displacement of a bound tracer by excess parental compound. Each tracer was analyzed for binding to each HiBiT-GPCR fusion in the absence and in the presence of competing parental compound. Briefly, HEK293 cells were transfected with HiBiT-GPCR constructs diluted into promoterless DNA to reduce expression and maximize translocation to the cell surface. Each tracer candidate was then screened at concentrations of 1 μM and 0.1 μM across cells expressing these fusions. Cells were treated for 1.5 h with tracer either alone or in the presence of 20 μM competing parental compound (i.e., control). BRET was measured upon addition of purified LgBiT and subsequent complementation with HiBiT genetically fused to a GPCR. The specificity of interactions was assessed through a decrease in BRET signal due to competitive displacement of the bound tracer. To further gauge the robustness of these interactions, the fold response over the control (i.e., BRETtracer/BRETcontrol) was calculated. We chose a 1.5-fold response, which translates to ≥7-fold signal over noise as the minimal threshold required to score an interaction as positive. […]. Below we highlight the screening results obtained for our exemplary fluorescent tracers based on Clozapine, Amitriptyline and AZD1283.
(§2) HiBiT-GPCR DNA constructs were diluted in 10 mM Tris pH 8 to a final concentration of 0.01 μg/μL, arrayed in 96-well plates and stored at −20 °C. For transfection, HEK293 cells were suspended in Opti-MEM (without phenol red) supplemented with 2% fetal bovine serum (Seradigm) and 100 units/mL penicillin–streptomycin (Gibco) at a final concentration of 220,000 cells/mL and dispensed into white 96-well plates at 90 μL/well. Subsequent transfections and screens were carried using an Agilent Bravo Automated Liquid Handling Platform. First, the 96-well HiBiT DNA arrays were diluted 25-fold in Opti-MEM (without serum or phenol red) to a final concentration of 0.0004 μg/μL and 20 μL of the diluted DNAs were transferred into new 96-well plates. Next, promoterless carrier DNA (1 μg/μL) was diluted 25-fold (0.04 μg/μL) and then dispensed into the diluted arrays at 20 μL/well. Following brief mixing, Viafect transfection reagent (Promega) diluted 16-fold into Opti-MEM was dispensed into the plates at 40 μL/well. After mixing by pipetting, plates were incubated for 10 min on the pipetting station deck. The DNA-transfection reagent complexes were then added to plates containing cells. To facilitate the screen, 10 μL of DNA-transfection reagent complexes were added in duplicates to the top 4 and bottom 4 rows, resulting in two identical 48-well arrays per plate. Plates with transfected cells were incubated for 18–20 h at 37 °C/5% CO2. A screen of each tracer across the entire library using two different concentrations requires duplicate plates of transfected cells. Depending on the number of tracers being screened, transfections can be scaled up using the same ratios. The next day, for each tracer, four 20× screening solutions in tracer dilution buffer (Promega) were prepared: two duplicates at final concentration of 20 μM and two duplicates at a final concentration of 2 μM. A competing unmodified compound was added to one of each duplicate at a final concentration of 400 μM. The four resulting solutions were diluted 4-fold in Opti-MEM without serum or phenol red to generate 5× solutions (5 µM and 0.5 µM tracer +/− 100 μM competing compound). To screen the library, a BioTek MultiFlo FX liquid dispenser was used to dispense 22.5 µL of tracer solution to the top 4 rows and 22.5 µL tracer + competing compound solution to the 4 bottom rows. Plates were briefly mixed on an orbital shaker and incubated for 1.5 h at room temperature. […]

[2] = molecular target: T2, PTGFR (Homo sapiens, UniProt P43088); test: NanoBRET screen HiBiT-PTGFR in HEK293; assay type: binding; conditions: PTGFR
T2 construct: purchased Promega (in-house HiBiT-GPCR construct library, NanoBRET)
T2 sequence (P43088 whole entry): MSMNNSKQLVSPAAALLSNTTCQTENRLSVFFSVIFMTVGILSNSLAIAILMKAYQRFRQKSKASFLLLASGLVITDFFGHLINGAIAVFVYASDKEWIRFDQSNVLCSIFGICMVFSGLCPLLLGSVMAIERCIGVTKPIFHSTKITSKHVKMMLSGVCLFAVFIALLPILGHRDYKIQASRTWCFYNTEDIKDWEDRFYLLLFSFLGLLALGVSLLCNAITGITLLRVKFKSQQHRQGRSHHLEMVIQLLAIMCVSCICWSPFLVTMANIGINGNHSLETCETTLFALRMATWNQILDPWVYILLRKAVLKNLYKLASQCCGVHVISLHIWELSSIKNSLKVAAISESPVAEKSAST
Protocol: as §1, §2

NanoBRET Fold Response ([1]; 0.1μM tracer): 1.02
NanoBRET Fold Response ([1]; 1μM tracer): 1.24
NanoBRET Fold Response ([2]; 0.1μM tracer): 1.04
NanoBRET Fold Response ([2]; 1μM tracer): 1.02
Structure (SMILES): O=C(CCOCCOCCOCCOCCNC(=O)CCc1ccc2n1[B-](F)(F)[N+]1=C(c3ccc[nH]3)C=CC1=C2)NCCCN1CCN(C2=Nc3cc(Cl)ccc3Nc3ccccc32)CC1 [Clozapine-a-2-NB590]
